Measurements from patent US9963462B2 (priority 2015, dated 2018).
pIC50: −log10 of the molar value.

Legend:
[1] = system: BH4 production in human peripheral blood mononuclear cells (PBMCs); assay: hPBMC assay, inhibition of BH4 production by LC-MS (anti-CD3/anti-CD28 stimulated); type: cell-based; settings: PBMC, read-out: hPBMC IC50
[2] = target: SNAP-hSPR (sepiapterin reductase, SPR) (Homo sapiens, UniProt P35270); assay: biochemical; type: binding; settings: terbium labelled SNAP-hSPR / SSZ labelled SNAP-EGFP; read-out: hTR-FRET IC50
SNAP-hSPR (sepiapterin reductase, SPR), sequence (P35270 whole entry): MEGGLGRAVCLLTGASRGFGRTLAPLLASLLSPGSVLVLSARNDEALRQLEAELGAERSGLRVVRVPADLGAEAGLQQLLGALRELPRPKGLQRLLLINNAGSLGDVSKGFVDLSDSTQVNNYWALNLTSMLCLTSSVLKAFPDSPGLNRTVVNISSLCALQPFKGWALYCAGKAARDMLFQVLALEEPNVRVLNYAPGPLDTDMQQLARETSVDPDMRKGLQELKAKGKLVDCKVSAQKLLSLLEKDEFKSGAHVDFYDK

Structure (SMILES)	pIC50 [1]	pIC50 [2]
Cc1c(C(=O)N2CCC(C(=O)CCC(F)(F)F)CC2)cnn1-c1nn2cccc2c(=O)[nH]1 [Q-1227]	7.85	9.00
Cc1c(C(=O)N2CCC(C(CO)C(F)(F)F)CC2)cnn1-c1nn2cccc2c(=O)[nH]1 (stereo not drawn) [Q-1228]	7.77	9.00
Cc1c(C(=O)N2CCC(n3ccnc3C(F)(F)F)CC2)cnn1-c1nn2cccc2c(=O)[nH]1 [Q-1229]	7.00	8.70
Cc1c(C(=O)N2CCN(c3ncc(-c4ccccc4F)s3)CC2)cnn1-c1nn2cccc2c(=O)[nH]1 [Q-1230]	6.74	8.00
Cc1c(C(=O)N2CCN(c3ncc(-c4ccnc(F)c4)s3)CC2)cnn1-c1nn2cccc2c(=O)[nH]1 [Q-1231]	7.21	8.52
Cc1c(C(=O)N2CCC(n3ccnc3Cl)CC2)cnn1-c1nn2cccc2c(=O)[nH]1 [Q-1232]	7.25	9.00
Cc1c(C(=O)N2CCC(n3cccc3Cl)CC2)cnn1-c1nn2cccc2c(=O)[nH]1 [Q-1233]	7.64	9.00
Cc1c(C(=O)N2CCC(n3cnc(C(F)(F)F)c3)CC2)cnn1-c1nn2cccc2c(=O)[nH]1 [Q-1234]	7.57	8.70
Cc1c(C(=O)N2CCN(c3ncc(-c4ccncc4)s3)CC2)cnn1-c1nn2cccc2c(=O)[nH]1 [Q-1235]	7.74	8.30
Cc1c(C(=O)N2CCN(c3ncc(-c4ccnc(Cl)c4)s3)CC2)cnn1-c1nn2cccc2c(=O)[nH]1 [Q-1236]	7.32	8.22
O=C(c1cn(-c2nn3cccc3c(=O)[nH]2)nn1)N1CC2(C1)CC(F)(F)C2 [Q-1237]	6.15	8.52
Cc1c(C(=O)N2CCC(n3cccc3C(F)(F)F)CC2)cnn1-c1nn2cccc2c(=O)[nH]1 [Q-1238]	7.10	8.70
Cc1nn(-c2nn3cccc3c(=O)[nH]2)cc1C(=O)N1CC2(C1)CC(F)(F)C2 [Q-1239]	7.57	8.70
Cc1c(C(=O)N2CCN(C3CC3C(F)(F)F)CC2)cnn1-c1nn2cccc2c(=O)[nH]1 (stereo not drawn) [Q-1240]	7.46	9.00
Cc1nn(-c2nn3cccc3c(=O)[nH]2)cc1C(=O)N1CCN(C2CCC2)CC1 [Q-1241]	7.70	8.70
Cc1nn(-c2nn3cccc3c(=O)[nH]2)cc1C(=O)N1CC(N2CCC(F)(F)C2)C1 [Q-1243]	7.29	7.70
O=C(c1cn(-c2nn3cccc3c(=O)[nH]2)nn1)N1CCN(C2CCC2)CC1 [Q-1244]	7.44	9.00
O=C(c1cnn(-c2nn3cccc3c(=O)[nH]2)c1)N1CCN2CC(F)(F)C[C@H]2C1 [Q-1246]	7.00	8.40
O=C(c1cn(-c2nn3cccc3c(=O)[nH]2)nn1)N1CCN(C2CCC2(F)F)CC1 (stereo not drawn) [Q-1247]	6.82	8.70
Cc1c(C(=O)N2CCN(C3CC3F)CC2)cnn1-c1nn2cccc2c(=O)[nH]1 (stereo not drawn) [Q-1249]	7.34	8.70
Cc1c(C(=O)N2CCC(n3ccc(C#N)c3)CC2)cnn1-c1nn2cccc2c(=O)[nH]1 [Q-1250]	7.62	9.00
Cc1c(C(=O)N2CC(N3CCC(F)(F)C3)C2)cnn1-c1nc2[nH]ccc2c(=O)[nH]1 [Q-1254]	6.06	7.00
Cc1c(C(=O)N2CC(N3CCC(F)(F)C3)C2)cnn1-c1nc2cc[nH]c2c(=O)[nH]1 [Q-1255]	6.24	7.00
Cc1c(C(=O)N2CCN(CC(F)(F)F)CC2)cnn1-c1nc2[nH]ccc2c(=O)[nH]1 [Q-1256]	6.48	7.52
Cc1c(C(=O)N2CC3(C2)CC(F)(F)C3)cnn1-c1nc2cc[nH]c2c(=O)[nH]1 [Q-1259]	6.44	7.00
Cc1c(C(=O)N2CCN(CC(F)(F)F)CC2)cnn1-c1nc2cc[nH]c2c(=O)[nH]1 [Q-1260]	7.09	7.52
Cc1c(C(=O)N2CC3(C2)CC(F)(F)C3)cnn1-c1nc2[nH]ccc2c(=O)[nH]1 [Q-1263]	6.43	7.00
